Reference: paper PMC3280239, “Virtual Screening, Identification and In Vitro Testing of Novel Inhibitors of O-Acetyl-L-Serine Sulfhydrylase of Entamoeba histolytica” (PLoS ONE, 2012)
Like-named read-outs stand apart in the source and are kept apart here.

How the values were obtained:
[1] = biological target: T1, O-acetyl-L-serine sulfhydrylase (EhOASS) (Entamoeba histolytica, UniProt O15570); test: PLP fluorescence titration (ex […] nm, em […] nm); also […] inhibition of purified enzyme at […]; format: binding
T1 sequence (O15570 entry or part of it): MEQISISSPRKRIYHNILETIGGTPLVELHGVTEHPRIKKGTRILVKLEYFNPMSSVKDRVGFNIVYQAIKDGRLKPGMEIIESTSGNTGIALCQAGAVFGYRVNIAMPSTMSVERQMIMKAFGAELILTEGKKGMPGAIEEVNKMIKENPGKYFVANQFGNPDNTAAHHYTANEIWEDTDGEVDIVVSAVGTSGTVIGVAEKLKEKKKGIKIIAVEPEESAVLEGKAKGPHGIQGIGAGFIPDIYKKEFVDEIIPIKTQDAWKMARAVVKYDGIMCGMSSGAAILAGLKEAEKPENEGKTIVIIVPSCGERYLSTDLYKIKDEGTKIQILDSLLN

[2] = biological target: T1, O-acetyl-L-serine sulfhydrylase (EhOASS); test: as above; format: binding; remark: listed apart in the source

Row | SMILES | Kd [1] [nM] | Kd [2] [µM]
1 | COc1ccc(C2C(C(C)=O)=C(O)C(=O)N2CCC(=O)O)cc1 (centres unmarked) [ZINC03984585, 3-[3-acetyl-4-hydroxy-2-(4-methoxyphenyl)-5-oxo-2,5-dihydro-1H-pyrrol-1-yl]propanoic acid] | 180 | 
2 | O=C(CSc1nc(O)cc(=O)[nH]1)c1c[nH]c2ccccc12 [ZINC08931589, 4-hydroxy-2-[2-(1H-indol-3-yl)-2-oxoethyl]sulfanyl-1H-pyrimidin-6-one] |  | ~8.05
